Measured values taken from the supplement of paper PMC5412046.
Counter-ions that a name gives are not always drawn.

Columns and labels:
[1] = system: SB.mhdgc-1; assay: AC50 for growth inhibition (viability) (log10 M); higher = less potent; settings: SB.mhdgc-1 (hereditary c.1380delA CDH1 gastric cancer)
How it was run: (§1)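 Dosing used a pintool to add 23 nL compound in DMSO to 1536 wells, each with 500 hereditary or sporadic patient-derived gastric cancer cells, across 11 threefold dilutions starting at a final 46 μM. Viability after 48 h was measured by CellTiter-Glo luminescence on a ViewLux. The log half-maximal activity concentration derives from a four-parameter fit of that viability normalised to DMSO, limited to high-quality curve classes.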

[2] = system: SB.msgc-1; assay: as above; settings: SB.msgc-1 (sporadic gastric cancer)
How it was run: as §1

SMILES	AC50 for growth inhibition (log10 M) [1]	AC50 for growth inhibition (log10 M) [2]
CN(C)c1ccc2nc3ccc(N(C)C)cc3[s+]c2c1 [Methylene blue]	-5.83	-5.33
CN(C)C1=CC=C(C=C1)C(C2=CC=C(C=C2)N(C)C)=C/3\C=C/C(/C=C3)=[N+](C)C [Methylrosaniline chloride]	-6.03	-5.78
CO[C@@H]1[C@H](N(C)C(=O)c2ccccc2)C[C@H]2O[C@]1(C)n1c3ccccc3c3c4c(c5c6ccccc6n2c5c31)C(=O)NC4 [Midostaurin]	-5.63	-5.38
CC#C[C@]1(O)CC[C@H]2[C@@H]/3CCC/4=C/C(=O)CCC4=C3[C@H](C[C@]12C)C5=CC=C(C=C5)N(C)C [Mifepristone]	-7.23	-6.63
CNC(=O)c1nn(C)c2c1C(C)(C)Cc1cnc(Nc3ccc(N4CCN(C)CC4)cc3)nc1-2 [Milciclib]	-5.93	-5.88
CN(C)c1ccc(O)c2c1C[C@H]1C[C@H]3[C@H](N(C)C)C(O)=C(C(N)=O)C(=O)[C@@]3(O)C(O)=C1C2=O [Minocycline]	-5.43	-5.38
Clc1ccc(C(c2ccccc2Cl)C(Cl)Cl)cc1 (stereo not drawn) [Mitotane]	-4.88	-4.73
O=C1c2c(O)ccc(O)c2C(=O)c2c(NCCNCCO)ccc(NCCNCCO)c21 [Mitoxantrone]	-7.13	-5.88
C[C@@H]1C[C@H]2[C@@H]3CC\C4=C\C(=O)\C=C/[C@]4(C)[C@@]3(Cl)[C@@H](O)C[C@]2(C)[C@@]1(OC(=O)C5=CC=CO5)C(=O)CCl [Mometasone furoate]	-4.83	-5.03
CCOC(=O)C/1=C(C)/NC(=S)NC1C2=CC=CC(=C2)O (stereo not drawn) [Monastrol]	-7.38	-7.38
CC[C@@]1([C@@H]2O[C@@H]([C@H]3O[C@@](O)(CO)[C@H](C)C[C@@H]3C)C[C@@H]2C)CC[C@H]([C@]2(C)CC[C@]3(C[C@H](O)[C@@H](C)[C@@H]([C@@H](C)[C@@H](OC)[C@H](C)C(=O)[O-])O3)O2)O1 [Monensin sodium salt]	-6.99	-6.94
CC1(C)CNc2cc(NC(=O)c3cccnc3NCc3ccncc3)ccc21 [Motesanib]	-7.23	-5.98
FC(F)(F)c1ccc(/C=C/c2nc(COc3ccc(CCCCn4ccnn4)cc3)co2)cc1 [Mubritinib]	-6.78	-7.83
COc1c(C)c2c(c(O)c1C/C=C(\C)CCC(=O)OCCN1CCOCC1)C(=O)OC2 [Mycophenolate mofetil]	-5.88	-5.03
COc1c(C)c2c(c(O)c1C/C=C(\C)CCC(=O)O)C(=O)OC2 [Mycophenolic acid]	-5.48	-5.93
COc1ccc(Nc2cc(-c3cnc(N)nc3)nc(N3CCOCC3)n2)cn1 [NIBR-17]	-6.48	-5.18
Nc1nc(N)c(N=O)c(OCC2CCCCC2)n1 [NU-6027]	-5.33	-4.73
N[S+](=O)([O-])c1ccc(Nc2nc(OCC3CCCCC3)c3[nH]cnc3n2)cc1 [NU-6102]	-4.68	-4.83
O=C1\C=C(OC2=C(C=CC=C12)C3=CC=CC4=C3SC5=C4C=CC=C5)\N6CCOCC6 [NU-7441]	-4.68	-4.78
CNCC(O)C(O)C(O)C(O)CO.O=C(O)c1ccc(-c2cc3cccnc3c(-c3ccc4nonc4c3)n2)cc1 [NVP-ABE171]	-4.58	-4.63
COc1ccc(-c2ccc3ncc4c(c3c2)n(-c2ccc(N3CCNCC3)c(C(F)(F)F)c2)c(=O)n4C)cn1 [NVP-BGT226]	-6.58	-5.58
Cc1ccc(C(=O)Nc2cccc(C(F)(F)F)c2)cc1Nc1nc(-c2cccnc2)nc2c1cnn2C [NVP-BHG712]	-4.83	-4.78
Fc1cc(-c2cccc3ncc(-c4cnn(C5CCNCC5)c4)nc23)cc(F)c1CN1CCOCC1 [NVP-BSK805]	-5.03	-4.68
CO[C@H]1CCC(O[C@H]2C[C@H]([C@]3(C)CC[C@]4(C[C@H](O)[C@@H](C)[C@@H]([C@@H](C)/C=C(\C)C(=O)[C@H](C)C[C@H](C)C(=O)[O][Na])O4)O3)O[C@]3(O[C@@H]([C@H]4O[C@@](O)(CO)[C@H](C)C[C@@H]4C)C[C@@H]3C)[C@@H]2C)O[C@@H]1C (stereo partly drawn) [Nanchangmycin]	-6.83	-6.68
